Test results taken from patent US20250059159A1, “PLPRO INHIBITORS” (SHANGHAI SYNERGY PHARMACEUTICAL SCIENCES CO., LTD., priority 2021, published 2025).

molecular target: SARS-CoV-2 PLpro (Severe acute respiratory syndrome coronavirus 2 (2019-nCoV) (SARS-CoV-2), UniProt P0DTD1); assay: PLpro enzymatic inhibition assay (IC50 value determination); type: biochemical; details: 60 min preincubation for covalent inhibitors, 10 min for non-covalent, read-out: Inhibition of SARS-CoV-2 PLpro IC50 range

**Q.** How did the IC50 turn out when `COC(=O)/C=C/CNC(=O)CNC(=O)[C@H](CN)NC1CCN([C@H](C)c2cccc3ccccc23)CC1` [Compound 26, methyl (E)-4-(2-((S)-3-amino-2-((1-((R)-1-(naphthalen-1-yl)ethyl)piperidin-4-yl)amino)propanamido)acetamido)but-2-enoate] was run?
**A.** 100 to 1000 nM

**Q.** With `COC(=O)/C=C/CNC(=O)CNC(=O)[C@H](CNC(=O)OC(C)(C)C)NC1CCN([C@H](C)c2cccc3ccccc23)CC1` [Compound 27, methyl (S,E)-2,2-dimethyl-7-((1-((R)-1-(naphthalen-1-yl)ethyl)piperidin-4-yl)amino)-4,8,11-trioxo-3-oxa-5,9,12-triazahexadec-14-en-16-oate] as the compound, how does the IC50 read?
**A.** 1000 to 10000 nM

**Q.** With `COC(=O)/C=C/CNC(=O)CNC(=O)[C@@H](C)NC1CCN([C@H](C)c2cccc3ccccc23)CC1` [Compound 28, methyl (E)-4-(2-((R)-2-((1-((R)-1-(naphthalen-1-yl)ethyl)piperidin-4-yl)amino)propanamido)acetamido)but-2-enoate] as the compound, how does the IC50 read?
**A.** 1000 to 10000 nM

**Q.** With `COC(=O)/C=C/CNC(=O)CNC(=O)C[C@H](NCc1ccc2c(c1)OCO2)C1CCN(C(C)c2cccc3ccccc23)CC1` (stereo partly drawn) [Compound 29, methyl (E)-4-(2-((3S)-3-((benzo[d][1,3]dioxol-5-ylmethyl)amino)-3-(1-(1-(naphthalen-1-yl)ethyl)piperidin-4-yl)propanamido)acetamido)but-2-enoate] as the compound, how does the IC50 read?
**A.** 100 to 1000 nM

**Q.** With `C#CCNC(=O)CCNC(=O)CN(C1CCN([C@H](C)c2cccc3ccccc23)CC1)S(C)(=O)=O` [Compound 57, (R)-3-(2-(N-(1-(1-(naphthalen-1-yl)ethyl)piperidin-4-yl)methylsulfonamido)acetamido)-N-(prop-2-yn-1-yl)propanamide] as the compound, how does the IC50 read?
**A.** 100 to 1000 nM

**Q.** Which IC50 does the source give for `C[C@H](c1cccc2ccccc12)N1CCC(N(CC(=O)NCC(=O)NC/C=C/S(C)(=O)=O)S(C)(=O)=O)CC1` [Compound 59, (R,E)-N-(3-(methylsulfonyl)allyl)-2-(2-(N-(1-(1-(naphthalen-1-yl)ethyl)piperidin-4-yl)methylsulfonamido)acetamido)acetamide] here?
**A.** 100 to 1000 nM

**Q.** `C[C@H](c1cccc2ccccc12)N1CCC(N(CC(=O)NCC(=O)NCC=O)S(C)(=O)=O)CC1` [Compound 64, (R)-2-(N-(1-(1-(naphthalen-1-yl)ethyl)piperidin-4-yl)methylsulfonamido)-N-(2-oxo-2-((2-oxoethyl)amino)ethyl)acetamide] was tested. Which IC50 did it give?
**A.** < 100 nM

**Q.** Which IC50 does the source give for `COC(=O)/C=C/CNC(=O)CNC(=O)CN(/C=C/C(=O)C(F)(F)F)C1CCN([C@H](C)c2cccc3ccccc23)CC1` [Compound 67, methyl (E)-4-(2-(2-((1-((R)-1-(naphthalen-1-yl)ethyl)piperidin-4-yl)((E)-4,4,4-trifluoro-3-oxobut-1-en-1-yl)amino)acetamido)acetamido)but-2-enoate] here?
**A.** < 100 nM

**Q.** For `C#CCNC(=O)CCC(=O)CN(C1CCN([C@H](C)c2cccc3ccccc23)CC1)S(C)(=O)=O` [Compound 81, (R)-5-(N-(1-(1-(naphthalen-1-yl)ethyl)piperidin-4-yl)methylsulfonamido)-4-oxo-N-(prop-2-yn-1-yl)pentanamide], which IC50 is on record?
**A.** 1000 to 10000 nM

**Q.** With `C#CCNC(=O)CNC(=O)CN(C1CCN(C(C)c2cccc3cccnc23)CC1)S(C)(=O)=O` (stereo not shown) [Compound 82, N-(2-oxo-2-(prop-2-yn-1-ylamino)ethyl)-2-(N-(1-(1-(quinolin-8-yl)ethyl)piperidin-4-yl)methylsulfonamido)acetamide] as the compound, how does the IC50 read?
**A.** 100 to 1000 nM

**Q.** `C#CCNC(=O)CNC(=O)CN(C1CCN(C(C)c2c(F)ccc3ccccc23)CC1)S(C)(=O)=O` (stereo not shown) [Compound 83, 2-(N-(1-(1-(2-fluoronaphthalen-1-yl)ethyl)piperidin-4-yl)methylsulfonamido)-N-(2-oxo-2-(prop-2-yn-1-ylamino)ethyl)acetamide] was tested. Which IC50 did it give?
**A.** 100 to 1000 nM

**Q.** `C#CCNC(=O)CNC(=O)CN(C1CCN(C(C)c2cccc3ccc(Cl)cc23)CC1)S(C)(=O)=O` (stereo not shown) [Compound 84, 2-(N-(1-(1-(7-chloronaphthalen-1-yl)ethyl)piperidin-4-yl)methylsulfonamido)-N-(2-oxo-2-(prop-2-yn-1-ylamino)ethyl)acetamide] was tested. Which IC50 did it give?
**A.** < 100 nM

**Q.** With `C#CCNC(=O)CNC(=O)CN(C1CCN(C(C)c2ccnc3ccccc23)CC1)S(C)(=O)=O` (stereo not shown) [Compound 85, N-(2-oxo-2-(prop-2-yn-1-ylamino)ethyl)-2-(N-(1-(1-(quinolin-4-yl)ethyl)piperidin-4-yl)methylsulfonamido)acetamide] as the compound, how does the IC50 read?
**A.** 100 to 1000 nM

**Q.** How did the IC50 turn out when `C#CCNC(=O)CNC(=O)CN(C1CCN([C@@H](C)c2cccc3ccccc23)CC1)S(C)(=O)=O` [Compound 89, (S)-2-(N-(1-(1-(naphthalen-1-yl)ethyl)piperidin-4-yl)methylsulfonamido)-N-(2-oxo-2-(prop-2-yn-1-ylamino)ethyl)acetamide] was run?
**A.** < 100 nM

**Q.** `C#CCNC(=O)CNC(=O)CN(C1CCN([C@@H](C)c2cccc3ccccc23)CC1)S(=O)(=O)C1CC1` [Compound 90, (S)-2-(N-(1-(1-(naphthalen-1-yl)ethyl)piperidin-4-yl)cyclopropanesulfonamido)-N-(2-oxo-2-(prop-2-yn-1-ylamino)ethyl)acetamide] was tested. Which IC50 did it give?
**A.** < 100 nM

**Q.** How did the IC50 turn out when `C#CCNC(=O)CNC(=O)CN(C1CCN([C@@H](C)c2cccc3ccccc23)CC1)S(=O)(=O)N1CCCC1` [Compound 91, (S)-2-(N-(1-(1-(naphthalen-1-yl)ethyl)piperidin-4-yl)pyrrolidine-1-sulfonamido)-N-(2-oxo-2-(prop-2-yn-1-ylamino)ethyl)acetamide] was run?
**A.** < 100 nM

**Q.** How did the IC50 turn out when `C#CCNC(=O)CNC(=O)[C@@H]1CNS(=O)(=O)N1C1CCN([C@H](C)c2cccc3ccccc23)CC1` [Compound 92, (S)-2-(1-((R)-1-(naphthalen-1-yl)ethyl)piperidin-4-yl)-N-(2-oxo-2-(prop-2-yn-1-ylamino)ethyl)-1,2,5-thiadiazolidine-3-carboxamide 1,1-dioxide 2,2,2-trifluoroacetate] was run?
**A.** 1000 to 10000 nM

**Q.** Which IC50 does the source give for `C#CCNC(=O)CNC(=O)CN(C1CCN([C@H](C)c2cccc3ccccc23)CC1F)S(C)(=O)=O` (stereo partly drawn) [Compound 93, 2-(N-(3-fluoro-1-((R)-1-(naphthalen-1-yl)ethyl)piperidin-4-yl)methylsulfonamido)-N-(2-oxo-2-(prop-2-yn-1-ylamino)ethyl)acetamide] here?
**A.** 100 to 1000 nM

**Q.** For `C#CCNC(=O)CNC(=O)CN(C1CCN(C(C)c2cccc(Cl)c2Cl)CC1)S(C)(=O)=O` (stereo not shown) [Compound 94, 2-(N-(1-(1-(2,3-dichlorophenyl)ethyl)piperidin-4-yl)methylsulfonamido)-N-(2-oxo-2-(prop-2-yn-1-ylamino)ethyl)acetamide], which IC50 is on record?
**A.** 100 to 1000 nM

**Q.** With `C#CCNC(=O)CNC(=O)CN(C1CCN(C(C)c2ccc(OC)c3ccccc23)CC1)S(C)(=O)=O` (stereo not shown) [Compound 96, 2-(N-(1-(1-(4-methoxynaphthalen-1-yl)ethyl)piperidin-4-yl)methylsulfonamido)-N-(2-oxo-2-(prop-2-yn-1-ylamino)ethyl)acetamide] as the compound, how does the IC50 read?
**A.** < 100 nM

**Q.** For `C#CCNC(=O)CNC(=O)CN(C1CCN(C(C)c2cccc3ccccc23)CC1)S(C)(=O)=O` (stereo not shown) [Compound 97, 2-(N-(1-(1-(naphthalen-1-yl)ethyl)piperidin-4-yl)methylsulfonamido)-N-(2-oxo-2-(prop-2-yn-1-ylamino)ethyl)acetamide], which IC50 is on record?
**A.** < 100 nM

**Q.** Which IC50 does the source give for `C#CCNC(=O)CNC(=O)CN(C1CCN(C(C)c2cccc3ccccc23)CC1)S(=O)(=O)N1CCCC1` (stereo not shown) [Compound 98, 2-(N-(1-(1-(naphthalen-1-yl)ethyl)piperidin-4-yl)pyrrolidine-1-sulfonamido)-N-(2-oxo-2-(prop-2-yn-1-ylamino)ethyl)acetamide] here?
**A.** < 100 nM
